Measured values reported in the NIST ThermoML archive (doi:10.1021/je3013638).
Numbers after ± are expanded uncertainties.

Details: Liquid, Closed cell (Static) method

Nc1cc(Cl)cc(Cl)c1 [3,5-dichloroaniline]
vapor or sublimation pressure (446.6 K): 10.25 ± 0.13 kPa | vapor or sublimation pressure (453.88 K): 12.95 ± 0.15 kPa | vapor or sublimation pressure (457.69 K): 14.44 ± 0.17 kPa | vapor or sublimation pressure (463.14 K): 16.64 ± 0.19 kPa | vapor or sublimation pressure (464.4 K): 17.2 ± 0.2 kPa | vapor or sublimation pressure (466.41 K): 18.21 ± 0.22 kPa | vapor or sublimation pressure (468.53 K): 19.57 ± 0.23 kPa | vapor or sublimation pressure (469.09 K): 19.87 ± 0.22 kPa | vapor or sublimation pressure (470.18 K): 20.2 ± 0.23 kPa | vapor or sublimation pressure (473.66 K): 22.16 ± 0.3 kPa | vapor or sublimation pressure (474.48 K): 23.01 ± 0.28 kPa | vapor or sublimation pressure (475.29 K): 23.48 ± 0.26 kPa | vapor or sublimation pressure (477.65 K): 24.67 ± 0.28 kPa | vapor or sublimation pressure (481.31 K): 27.19 ± 0.32 kPa | vapor or sublimation pressure (484.05 K): 29.6 ± 0.33 kPa | vapor or sublimation pressure (487.88 K): 32.05 ± 0.36 kPa | vapor or sublimation pressure (490.85 K): 35.09 ± 0.41 kPa | vapor or sublimation pressure (492.54 K): 36.63 ± 0.41 kPa | vapor or sublimation pressure (495.3 K): 38.71 ± 0.43 kPa | vapor or sublimation pressure (497.31 K): 41.11 ± 0.46 kPa | vapor or sublimation pressure (500.72 K): 44.06 ± 0.49 kPa | vapor or sublimation pressure (503.96 K): 47.64 ± 0.53 kPa | vapor or sublimation pressure (507.34 K): 51.52 ± 0.58 kPa | vapor or sublimation pressure (509.76 K): 55.17 ± 0.62 kPa | vapor or sublimation pressure (512.08 K): 58.05 ± 0.63 kPa | vapor or sublimation pressure (513.94 K): 60.01 ± 0.66 kPa | vapor or sublimation pressure (516.09 K): 63.13 ± 0.71 kPa | vapor or sublimation pressure (518.15 K): 66.66 ± 0.74 kPa | vapor or sublimation pressure (519.82 K): 68.55 ± 0.75 kPa | vapor or sublimation pressure (521.75 K): 71.6 ± 0.81 kPa | vapor or sublimation pressure (523.61 K): 75.31 ± 0.84 kPa | vapor or sublimation pressure (525.72 K): 78.65 ± 0.85 kPa | vapor or sublimation pressure (528.31 K): 82.54 ± 0.91 kPa | vapor or sublimation pressure (530.51 K): 87.17 ± 0.96 kPa | vapor or sublimation pressure (532.9 K): 91.08 ± 1 kPa | vapor or sublimation pressure (534.94 K): 95.84 ± 1.1 kPa
